Literature values as cited in patent publication US4430326A (University Patents, Inc., priority 1981, dated 1984).

Columns and labels:
adenylate cyclase system = settings: literature reports
[1] = system: glycogenolytic stimulation; settings: Cote, et al.

Substance: N^α,N^ε -di(trinitrophenyl)-glucagon
- reported action on adenylate cyclase activity (agonist / antagonist) (adenylate cyclase system): agonists

Substance: N^α -trinitrophenyl glucagon
- reported action toward glycogenolytic stimulation [1]: partial agonist

Substance: [12-homoargine]glucagon
- reported action on adenylate cyclase activity (agonist / antagonist) (adenylate cyclase system): full agonist
